Experimental data from patent publication US10689387B2, “Crystalline form of (1R,2R)-2-[4-(3-methyl-1H-pyrazol-5-yl)benzoyl]-N-(4-oxo-4,5,6,7-tetrahydropyrazolo[1,5-A]pyrazin-3-yl)cyclohexanecarboxamide” (AstraZeneca AB, priority 2016, dated 2020).

Test system: LTB4 production in fresh human whole blood
Assay: FLAP Whole Blood Assay (Test B), inhibition of LTB4 production
Format: cell-based
Conditions: method B: 4 h incubation at 37° C., calcium ionophore A23187 stimulation
Procedure: FLAP Whole Blood Assay (Test B)
Compounds were tested for the inhibition of LTB4 production in fresh human whole blood obtained by venapuncture using heparin to prevent clotting. 1.5 μL compounds or DMSO carrier were dispensed into the wells of a 96-well deep-well plate in 3-fold dilution series. 500 μL heparnised whole blood was then added followed by incubation at 37° C. for 30 min (method A) or 4 h (method B). 100 μL blood was subsequently transferred in triplicate to pre-dispensed 0.5 μL 2 mM calcium ionophore (calcimycin; A23187) in a second 96-well plate. Following incubation at 37° C. for 20 min, the assays were stopped by adding 10 μL of stop solution (100 mM EGTA, pH 7.4) and the plate was transferred to ice. The plate was centrifuged at 3000 rpm at 4° C. for 10 min and 10 μL plasma was transferred to a fresh 96 well plate containing 90 μL pre-dispensed EIA assay buffer (0.1 M phosphate buffer+0.1% BSA). LTB4 was then measured using reagents from a commercial EIA (Cayman Chemicals). […] Inhibition of LTB4 production was defined as the LTB4 level in the presence of a given concentration of test compound expressed as a % of the LTB4 level in the presence of DMSO. IC50 values were determined by plotting % inhibition versus log compound concentration and using a one site dose response model. […]

- IC50: 0.04 µM
SMILES: Cc1cc(-c2ccc(C(=O)[C@@H]3CCCC[C@H]3C(=O)Nc3cnn4c3C(=O)NCC4)cc2)[nH]n1 [Compound (I), (1R,2R)-2-[4-(3-methyl-1H-pyrazol-5-yl)benzoyl]-N-(4-oxo-4,5,6,7-tetrahydropyrazolo[1,5-a]pyrazin-3-yl)cyclohexanecarboxamide]
